Read-outs that look alike come from different tables or passages of the source.
Target: DDR1 (Homo sapiens (Human), UniProt Q08345)
Test: Measurement of DDR1 enzyme inhibitory activity (phosphorylation of biotinylated peptide, time-resolved fluorescence)
Format: biochemical
Conditions: read-out: DDR1 enzyme inhibition assay IC50
Description: 1. Measurement of DDR1 Enzyme Inhibitory Activity
The DDR1 enzyme inhibitory activity was determined with human DDR1 enzyme prepared using the baculovirus expression system, based on the inhibitory activity of phosphorylation of a biotinylated peptide ([…]) by the enzyme. The phosphorylated biotinylated peptide was detected using time-resolved fluorescence, with an anti-phosphorylated tyrosine antibody conjugated with europium cryptate and streptavidin conjugated with XL665 which is a derivative of allophycocyanin.

[1] = human DDR1 enzyme, biotinylated peptide phosphorylation

DDR1, sequence (Q08345 19-913): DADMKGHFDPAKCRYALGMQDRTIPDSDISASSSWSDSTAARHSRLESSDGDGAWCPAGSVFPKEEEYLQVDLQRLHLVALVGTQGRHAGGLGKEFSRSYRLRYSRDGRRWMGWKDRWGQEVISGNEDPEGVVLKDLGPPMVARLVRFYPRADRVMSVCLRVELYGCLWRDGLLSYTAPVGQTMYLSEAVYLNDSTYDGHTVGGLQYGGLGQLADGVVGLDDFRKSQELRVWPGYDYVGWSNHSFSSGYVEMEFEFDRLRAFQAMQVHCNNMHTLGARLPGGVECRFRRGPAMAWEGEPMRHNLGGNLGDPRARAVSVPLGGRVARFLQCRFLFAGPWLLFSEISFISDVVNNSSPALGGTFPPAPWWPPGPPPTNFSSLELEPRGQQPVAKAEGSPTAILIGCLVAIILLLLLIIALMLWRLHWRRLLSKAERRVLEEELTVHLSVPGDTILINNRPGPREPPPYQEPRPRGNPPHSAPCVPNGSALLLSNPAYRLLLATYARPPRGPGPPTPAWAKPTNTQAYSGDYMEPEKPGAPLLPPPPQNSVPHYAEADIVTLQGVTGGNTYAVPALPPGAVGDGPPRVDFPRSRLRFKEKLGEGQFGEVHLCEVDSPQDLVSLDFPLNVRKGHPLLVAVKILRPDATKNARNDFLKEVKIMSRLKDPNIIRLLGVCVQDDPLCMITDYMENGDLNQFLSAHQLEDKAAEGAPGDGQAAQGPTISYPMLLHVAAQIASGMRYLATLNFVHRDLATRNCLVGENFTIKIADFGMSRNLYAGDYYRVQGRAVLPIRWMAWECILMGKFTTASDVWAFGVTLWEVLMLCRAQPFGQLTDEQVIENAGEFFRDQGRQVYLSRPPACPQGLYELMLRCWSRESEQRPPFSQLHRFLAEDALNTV

| SMILES | IC50 [1] [nM] | IC50 [nM] |
| --- | --- | --- |
| CCS(=O)(=O)c1ccc(Cl)cc1Nn1cnc2ncc(C#N)cc2c1=O [Compound A-18, 3-(5-Chloro-2-ethylsulfonylanilino)-4-oxopyrido[2,3-d]pyrimidine-6-carbonitrile] | 1710 |  |
| CCSc1ccc(Cl)cc1Nn1cnc2cc(OC)c(OC)cc2c1=O [Compound A-38, 3-(5-Chloro-2-ethylsulfanylanilino)-6,7-dimethoxyquinazolin-4-one] | 480 |  |
| CCS(=O)(=O)c1ccc(Cl)cc1Nn1cnc2cnc(F)cc2c1=O [Compound A-20, 3-(5-Chloro-2-ethylsulfonylanilino)-6-fluoropyrido[3,4-d]pyrimidin-4-one] | 7640 |  |
| CCSc1ccc(Cl)cc1Nn1cnc2c(Br)cc(C(F)(F)F)cc2c1=O [Compound A-32, 8-Bromo-3-(5-chloro-2-ethylsulfanylanilino)-6-(trifluoromethyl)quinazolin-4-one] | 290 |  |
| CCCc1ccc(Cl)cc1Nn1cnc2ccc(OC(F)(F)F)cc2c1=O [Compound B-17, 3-(5-Chloro-2-propylanilino)-6-(trifluoromethoxy)quinazolin-4-one] | 410 |  |
| CCS(=O)(=O)c1ccc(Cl)cc1Nn1cnc2ccc([N+](=O)[O-])cc2c1=O [Compound A-57, 3-(5-Chloro-2-ethylsulfonylanilino)-6-nitroquinazolin-4-one] | 120 |  |
| CCOc1ccc2ncn(Nc3cc(Cl)ccc3SCC)c(=O)c2c1 [Compound A-36, 3-(5-Chloro-2-ethylsulfanylanilino)-6-ethoxyquinazolin-4-one] | 250 |  |
| CCSc1ccc(Cl)cc1Nn1cnc2ccc(I)cc2c1=O [Compound A-60, 3-(5-Chloro-2-ethylsulfanylanilino)-6-iodoquinazolin-4-one] | 220 |  |
| CCSc1ccc(C#N)cc1Nn1cnc2c(Br)cc(C(F)(F)F)cc2c1=O [Compound C-11, 3-[[8-Bromo-4-oxo-6-(trifluoromethyl)quinazolin-3-yl]amino]-4-ethylsulfanylbenzonitrile] | 110 |  |
| CCS(=O)(=O)c1ccc(F)cc1Nn1cnc2c(Br)cc(OC(F)(F)F)cc2c1=O [Compound C-20, 8-Bromo-3-(2-ethylsulfonyl-5-fluoroanilino)-6-(trifluoromethoxy)quinazolin-4-one] | 150 |  |
| CCS(=O)(=O)c1ccc(C#N)cc1Nn1cnc2c(Br)cc(C)cc2c1=O [Compound C-2, 3-[(8-Bromo-6-methyl-4-oxoquinazolin-3-yl)amino]-4-ethylsulfonylbenzonitrile] | 160 |  |
| Cc1cc(Br)c2ncn(Nc3cc(Cl)ccc3S(=O)(=O)c3ccccc3)c(=O)c2c1 [Compound B-14, 3-[2-(Benzenesulfonyl)-5-chloroanilino]-8-bromo-6-methylquinazolin-4-one] | 290 |  |
| CCS(=O)(=O)c1ccc(C#N)cc1Nn1cnc2cc(C)c(Br)cc2c1=O [Compound C-6, 3-[(6-Bromo-7-methyl-4-oxoquinazolin-3-yl)amino]-4-ethylsulfonylbenzonitrile] | 250 |  |
| C#Cc1ccc(S(=O)(=O)CC)c(Nn2cnc3c(Br)cc(C(F)(F)F)cc3c2=O)c1 [Compound C-37, 8-Bromo-3-(2-ethylsulfonyl-5-ethynylanilino)-6-(trifluoromethyl)quinazolin-4-one] | 240 |  |
| CCSc1ccc(Cl)cc1Nn1cnc2ccc(OC)cc2c1=O [Compound A-34, 3-(5-Chloro-2-ethylsulfanylanilino)-6-methoxyquinazolin-4-one] | 68 |  |
| C=Cc1ccc2ncn(Nc3cc(Cl)ccc3S(=O)(=O)CC)c(=O)c2c1 [Compound A-64, 3-(5-Chloro-2-ethylsulfonylanilino)-6-ethenylquinazolin-4-one] | 200 |  |
| CCS(=O)(=O)c1ccc(Cl)cc1Nn1cnc2cnc(Cl)cc2c1=O [Compound A-15, 6-Chloro-3-(5-chloro-2-ethylsulfonylanilino)pyrido[3,4-d]pyrimidin-4-one] | 1230 |  |
| CCCSc1ccc(Cl)cc1Nn1cnc2c(Br)cc(C)cc2c1=O [Compound B-3, 8-Bromo-3-(5-chloro-2-propylsulfanylanilino)-6-methylquinazolin-4-one] | 140 |  |
| CCSc1ccc(Cl)cc1Nn1cnc2ncc(C(F)(F)F)cc2c1=O [Compound A-23, 3-(5-Chloro-2-ethylsulfanylanilino)-6-(trifluoromethyl)pyrido[2,3-d]pyrimidin-4-one] | 160 |  |
| CCS(=O)(=O)c1ccc(Cl)cc1Nn1cnc2ccc(N)cc2c1=O [Compound A-58, 6-Amino-3-(5-chloro-2-ethylsulfonylanilino)quinazolin-4-one] | 4050 |  |
| CCSc1ccc(Cl)cc1Nn1cnc2cc(Br)c(C)cc2c1=O [Compound A-5, 7-Bromo-3-(5-chloro-2-ethylsulfanylanilino)-6-methylquinazolin-4-one] | 880 |  |
| CCSc1ccc(OC)cc1Nn1cnc2ccc(OC(F)(F)F)cc2c1=O [Compound C-27, 3-(2-Ethylsulfanyl-5-methoxyanilino)-6-(trifluoromethoxy)quinazolin-4-one] | 200 |  |
| CCS(=O)(=O)c1ccc(Cl)cc1Nn1cnc2ncc(Br)cc2c1=O [Compound A-17, 6-Bromo-3-(5-chloro-2-ethylsulfonylanilino)pyrido[2,3-d]pyrimidin-4-one] | 270 |  |
| CCSc1ccc(F)cc1Nn1cnc2c(Br)cc(C(F)(F)F)cc2c1=O [Compound C-21] | 600 |  |
| CCOc1ccc2ncn(Nc3cc(Cl)ccc3S(=O)(=O)CC)c(=O)c2c1 [Compound A-37, 3-(5-Chloro-2-ethylsulfonylanilino)-6-ethoxyquinazolin-4-one] | 430 |  |
| CCS(=O)(=O)c1ccc(C#N)cc1Nn1cnc2ncc(Br)cc2c1=O [Compound C-8, 3-[(6-Bromo-4-oxopyrido[2,3-d]pyrimidin-3-yl)amino]-4-ethylsulfonylbenzonitrile] | 6400 |  |
| C#Cc1ccc(SCC)c(Nn2cnc3c(Br)cc(C(F)(F)F)cc3c2=O)c1 [Compound C-36, 8-Bromo-3-(2-ethylsulfanyl-5-ethynylanilino)-6-(trifluoromethyl)quinazolin-4-one] | 280 |  |
| CCCS(=O)(=O)c1ccc(Cl)cc1Nn1cnc2c(Br)cc(C)cc2c1=O [Compound B-4, 8-Bromo-3-(5-chloro-2-propylsulfonylanilino)-6-methylquinazolin-4-one] | 110 |  |
| CCSc1ccc(Cl)cc1Nn1cnc2ccc(OC(F)(F)F)cc2c1=O [Compound A-44, 3-(5-Chloro-2-ethylsulfanylanilino)-6-(trifluoromethoxy)quinazolin-4-one] | 290 |  |

Next, values leading:

| IC50 [1] [nM] | IC50 [nM] | SMILES |
| --- | --- | --- |
| 490 |  | CCS(=O)(=O)c1ccc(Cl)cc1Cn1ccc2ccc(OC)cc2c1=O [Compound F-3, 2-[(5-Chloro-2-ethylsulfonylphenyl)methyl]-7-methoxyisoquinolin-1-one] |
| 2360 |  | CCSc1ncc(Cl)cc1Nn1cnc2c(Br)cccc2c1=O [Compound D-1, 8-Bromo-3-[(5-chloro-3-ethylsulfanylpyridin-3-yl)amino]quinazolin-4-one] |
| 540 |  | CCSc1ccc(Cl)cc1Cn1cnc2c(Br)cc(OC(F)(F)F)cc2c1=O [Compound E-11, 8-bromo-3-[(5-chloro-2-ethylsulfanylphenyl)methyl]-6-(trifluoromethoxy)quinazolin-4-one] |
| 430 |  | CCS(=O)(=O)c1ncc(Cl)cc1Nn1cnc2ccc(C(F)(F)F)cc2c1=O [Compound D-3, 3-[(5-Chloro-2-ethylsulfonylpyridin-3-yl)amino]-6-(trifluoromethyl)quinazolin-4-one] |
| 590 |  | CCSc1ccc(Cl)cc1Cn1cnc2c(Br)cc(C(F)(F)F)cc2c1=O [Compound E-9, 8-Bromo-3-[(5-chloro-2-ethylsulfanylphenyl)methyl]-6-(trifluoromethyl)quinazolin-4-one] |
| 580 |  | CCSc1ncc(Cl)cc1Nn1cnc2c(Br)cc(C)cc2c1=O [Compound D-4, 8-Bromo-3-[(5-chloro-2-ethylsulfanylpyridin-3-yl)amino]-6-methylquinazolin-4-one] |
|  | 120 | CCS(=O)(=O)c1ccc(Cl)cc1Cn1cnc2cc(CN3CCC(N4CCCCC4)C3)c(Br)cc2c1=O (stereo not drawn) [Compound J-9, 6-Bromo-3-[(5-chloro-2-ethylsulfonylphenyl)methyl]-7-[(3-piperidin-1-ylpyrrolidin-1-yl)methyl]quinazolin-4-one] |
| 250 |  | CCS(=O)(=O)c1ccc(C#N)cc1Nn1cnc2cc(CN3CCNCC3)c(Br)cc2c1=O [Compound H-41, 3-[[6-Bromo-4-oxo-7-(piperazin-1-ylmethyl)quinazolin-3-yl]amino]-4-ethylsulfonylbenzonitrile] |
|  | 200 | CCS(=O)(=O)c1ccc(Cl)cc1Cn1cnc2c(Br)c(CN3CCN(C(C)C)CC3)c(Br)cc2c1=O [Compound L-12, 6,8-Dibromo-3-[(5-chloro-2-ethylsulfonylphenyl)methyl]-7-[(4-propan-2-ylpiperazin-1-yl)methyl]quinazolin-4-one] |
| 410 |  | CCSc1ncc(Cl)cc1Nn1cnc2ccc(C(F)(F)F)cc2c1=O [Compound D-2, 3-[(5-Chloro-2-ethylsulfanylpyridin-3-yl)amino]-6-(trifluoromethyl)quinazolin-4-one] |
|  | 140 | CCS(=O)(=O)c1ccc(Cl)cc1Cn1cnc2cc(CN3CC[C@H](N)C3)c(Br)cc2c1=O [Compound J-8, 7-[[(3S)-3-Aminopyrrolidin-1-yl]methyl]-6-bromo-3-[(5-chloro-2-ethylsulfonylphenyl)methyl]quinazolin-4-one] |
| 120 |  | CCS(=O)(=O)c1ccc(Cl)cc1Cn1cnc2c(Cl)cc(OC(F)(F)F)cc2c1=O [Compound E-14, 8-Chloro-3-[(5-chloro-2-ethylsulfonylphenyl)methyl]-6-(trifluoromethoxy)quinazolin-4-one] |
| 390 |  | CCS(=O)(=O)c1ccc(Cl)cc1Cn1cnc2c(Br)cc(OC(F)(F)F)cc2c1=O [Compound E-12, 8-Bromo-3-[(5-chloro-2-ethylsulfonylphenyl)methyl]-6-(trifluoromethoxy)quinazolin-4-one] |

From patent US10005739B2, “Quinazolinone and isoquinolinone derivative” (CHUGAI SEIYAKU KABUSHIKI KAISHA, priority 2013, dated 2018)
